According to US20210386668A1, “Cyclodextrin for use in the treatment and prevention of late phase bronchoconstriction in allergen-induced asthma” (Universite de Liege, priority 2020, published 2021):

Legend:
[1] = system: mild to moderate asthmatic patients sensitized to HDM; assay: Phase 2a proof of concept clinical trial, HDM allergen challenge (FEV1); assay type: in vivo, human
Source text: Seventeen mild to moderate asthmatics sensitized to HDM were included in a double blind crossover study comprising allergen challenges with HDM. […] These experiments show a significant effect of HPBCD inhalation on the prevention of allergen-induced FEV1 decrease during the late phase.
Clinical trial protocols have been approved by an independent ethical committee (CHU Liege—University of Liege) in accordance with GCPs, Declaration of Helsinki and European regulations (EudraCT). All participants gave written informed consent before any study-specific procedure. For the phase 1 clinical trial, 8 healthy subjects (4 women and 4 men) from 18 to 40 years were recruited and enrolled in the study at the University Hospital of Liege (Belgium). Patients were randomized and received first the placebo (NaCl 0.9%) or HPBCD at 2.5 mM and 8 days after, the opposite treatment. After 1 week, all patients received HPBCD at 15 mM. One month later, all patients received HPBCD at 15 mM during 5 consecutive days. Apyrogenic and sterile HPBCD powder was diluted with NaCl 0.9% before inhalation (8 ml) with an ultrasonic nebulizer (Devilbiss 2000). General symptoms, asthma scores (ACQ), dyspnea, chest Rx, clinical biology, ECG, vital signs, spirometry, NO, sputum (induced by NaCl 4.5%) were analyzed after treatment periods. The second clinical trial (phase 2a-proof of concept) was a double-blinded, cross-over, placebo-controlled study. 17 mild to moderate asthmatic patients were included in the study at two different sites (University Hospital of Liege and University Hospital Erasme) in Belgium. Characterization visits consisted of dyspnea symptoms recording, ECG, chest Rx, clinical biology, spirometry and vital signs analysis. PD20 (provocative dose that causes a 20% fall in FEV1 from the saline alone value) to inhaled allergen was determined. […] The PD20 of the allergen was calculated from a cumulative dose-response curve, as described previously, Cataldo et al., Matrix metalloproteinase-9, but not tissue inhibitor of matrix metalloproteinase-1, increases in the sputum from allergic asthmatic patients after allergen challenge, Chest. 2002; 122(5):1553-9. All […] received a cumulative concentration of Dermatophagoides pteronyssinus with a reactivity index of 6. After 14 days wash-out period, patients were randomly divided into two groups and received either HPBCD 15 mM or Placebo (NaCl 0.9%) by inhalation (ultrasonic nebulizer (Devilbiss 2000)) twice daily. At the end of this treatment period, lung function (FEV1) was analyzed after allergen (HDM) challenge under the supervision of experienced respiratory clinical physiologists. FEV1 was measured after allergen inhalation challenge at 5, 15, 30, 60, 120, 180, 240, 300 and 360 min. After 28 days wash-out period, patients received the opposite treatment for another 14 days and the FEV1 following allergen challenge was evaluated. All clinical parameters were examined after each treatment period. The endpoint of this proof of concept study was changes in FEV1 over 0-360 min post-allergen challenges. FEV1 in early phase (0-60 min) and late phase (180-360 min) were expressed as: area under the FEV1-versus-time curve (AUC), maximum percentage fall and average percentage fall (calculated by dividing the area under the curve of the percentage fall in FEV1 by the duration of the response period). One patient who received placebo had negative maximum FEV1 decrease and negative average percentage fall in FEV1. These negative values were truncated to 0. Patients had access to […] (salbutamol 100 μg) throughout the study as an «as needed» treatment. […]

[2] = system: BALB/c mice, OVA induced inflammation and AHR; assay: Ovalbumin-induced airway inflammation and AHR mouse model; assay type: in vivo; settings: HPBCD 10 mM inhalation
Experimental: Two intranasal instillations of house dust mite were performed on days 0 and 7 to induce the migration of specific memory CD4+ T-cells into lung parenchyma, followed by a challenge instillation on day 14. […] The last house dust mite instillation was preceded by two days of HPBCD or PBS inhalations and followed by three inhalations until sacrifice (FIG. 1A). […] Airway responsiveness was evaluated by exposing animals to increasing doses of inhaled methacholine and by measuring Newtonian resistances representing the resistance of central or conducting airways. […] The bronchoalveolar lavage fluid (BALF) was then recovered and analyzed for cell content. […] The effect of HPBCD inhalation on T-cell numbers in lung parenchyma was investigated by flow cytometry.
Mice were lightly isoflurane-anesthetized and received an intra-nasal (i.n) instillation of HDM extract (100 μg; 50 μl) in endotoxin-free saline on days 0, 7 and 14. Mice were subjected to inhalation (generated by ultrasonic nebulizer (Devilbiss 2000)) of HPBCD 10 mM or endotoxin-free saline for 40 minutes between day 12 and 16. On day 14, they received the inhalation 1 h before the last i.n. instillation of HDM. After measurement of bronchial responsiveness using the FlexiVent System, mice were sacrificed on day 17. Mice submitted to ovalbumin as allergen were i.p injected with 10 mcg ovalbumin grade 5 and exposed to ovalbumin grade 3 by inhalation between day 21 and 25. Mice were treated with HPBCD 10 mM given by inhalation between day 19 and 25. […]
Mice were anesthetized by intraperitoneal injection with a mixture of ketamine (10 mg/ml, Merial, Brussel, Belgium) and xylazine (1 mg/ml, VMD, Arendonk, Belgium). […] Respiratory parameters following methacholine challenge (3, 6, and 12 gr/l (or 24 gr/l)) were evaluated using a 3 sec broadband signal to measure input impedance from 1 to 20.5 Hz and to calculate constant-phase model parameters (Quick-prime 3). Newtonian resistance (Rn) was the main parameter measured during the challenge. […]

With `CC(O)COC[C@H]1O[C@@H]2O[C@H]3[C@H](O)[C@@H](O)[C@@H](O[C@H]4[C@H](O)[C@@H](O)[C@@H](O[C@H]5[C@H](O)[C@@H](O)[C@@H](O[C@H]6[C@H](O)[C@@H](O)[C@@H](O[C@H]7[C@H](O)[C@@H](O)[C@@H](O[C@H]8[C@H](O)[C@@H](O)[C@@H](O[C@H]1[C@H](O)[C@H]2O)O[C@@H]8COCC(C)O)O[C@@H]7COCC(C)O)O[C@@H]6COCC(C)O)O[C@@H]5COCC(C)O)O[C@@H]4COCC(C)O)O[C@@H]3COCC(C)O` (stereo partly drawn) [HPBCD, 2-hydroxypropyl-beta-cyclodextrin] the “decrease in FEV1 after HDM challenge (AUC 0-360 min)” value ([1]; HPBCD 15 mM inhalation twice daily vs placebo, FIG. 5B) was “lower decrease in FEV1”, the “maximum FEV1 decrease after HDM challenge” value ([1]; HPBCD 15 mM vs placebo, FIG. 5D) was “significantly lower” and the “average percentage FEV1 decrease after HDM challenge” value ([1]; HPBCD 15 mM vs placebo, FIG. 5E) was “significantly lower”. For the same compound, the “hematology, serum biochemistry, urinalysis, vital signs, ECG tests and chest X-ray” value ([1]; between treatment groups) was “No significant changes”, the “FEV1 decrease during the early bronchoconstriction phase” value ([1]; early phase 0-60 min, HPBCD vs placebo) was “No significant differences” and the “prevention of FEV1 decrease during the late phase reaction (AUC)” value ([1]; late phase 180-360 min, HPBCD 15 mM vs placebo, FIG. 5C) was “predominant effect”. For the same compound, the “airway hyperresponsiveness induced by ovalbumin” value ([2]; FIG. 2B) was “significantly decrease”, the “number of inflammatory cells in BALF” value ([2]; FIG. 2C) was “significantly decrease” and the “number of eosinophils around the bronchi” value ([2]; FIG. 2D) was “significantly decrease”.
